The nature of data set [1]: Spectroscopic properties of ZnODPc (absorption, fluorescence). The class given is physicochemical. On the procedure:
The fluorescence emission maximum, excited at 703 nm is at 712 nm.
(§1) In this investigation female Balb/c mice 20-22 g bearing a MS-2 fibrosarcoma intramuscularly implanted into the hind right leg were used as an animal model. On the 7th day after transplantation when the tumour diameter was 0.6-0.8 cm and no spontaneous necrosis could be detected, the mice were injected with 1.2 or 2.4 mg/kg ZnODPc incorporated into Cremophor emulsions. The preparation and characterisation of such emulsions has been described by L. Polo et al Cancer Lett. 66: 217-223, 1992. The amount of injected ZnODPc was estimated by diluting a known aliquot of the phthalocyanine-containing emulsion into THF and reading the absorbance at 701 nm (molar absorption coefficient 2.01×10^5 dm^3 mol^-1 cm^-1).

Data set [2] can be described thus: Singlet oxygen generation (luminescence at 1270 nm). The class given is physicochemical. On the procedure:
(§2) Triplet state studies were carried out using laser flash photolysis. Samples were prepared in a 1% pyridine in toluene solution; by preparing such a solution then it is believed that aggregation of the phthalocyanine cores is avoided. The solution was prepared so that an optical density of 0.2-0.3 at the excitation wavelength was obtained. Samples were irradiated by an excimer pumped dye laser at 355 nm and the transients monitored with the use of a quartz halogen lamp. Triplet quantum yields were calculated using ZnTPP and ZnPc as standards. The triplet quantum yield is the quantum yield of conversion from the excited singlet state to the triplet state.
The generation of singlet oxygen by the phthalocyanines was also studied. The method of detection of the singlet oxygen involved measuring the intensity of luminescence at 1270 nm, corresponding to the forbidden transition from the excited singlet back down to the ground state, with a liquid nitrogen cooled germanium detector. Aerated samples were irradiated with the same system as described for the triplet state studies. Standards used were ZnTPP, ZnPc and anthracene.
The data in Table 3 are means of no less than four independent runs, except for compounds 8 and 9 were run once.
The properties of the decomposition products arising from irradiation of the phthalocyanines were investigated.

Data set [3] can be described thus: Triplet state studies by laser flash photolysis. Type of data set: physicochemical. Particulars: 1% pyridine in toluene, excitation 355 nm; for Triplet Quantum Yield: means of no less than four runs, compounds 8 and 9 run once. The protocol:
as §2
Compound example 10 is unsubstituted zinc phthalocyanine (ZnPc); this is included in the Table for means of comparison.
The data in Table 2 are means of no less than four independent runs, except for compounds 8 and 9 which were run once.

On the set-up of data set [4]: species or system female Balb/c mice. Particulars: mouse, in vivo. On the procedure: In this investigation female Balb/c mice 20-22 g bearing a MS-2 fibrosarcoma intramuscularly implanted into the hind right leg were used as an animal model. On the 7th day after transplantation when the tumour diameter was 0.6-0.8 cm and no spontaneous necrosis could be detected, the mice were injected with 1.2 or 2.4 mg/kg ZnODPc incorporated into Cremophor emulsions. The preparation and characterisation of such emulsions has been described by L. Polo et al Cancer Lett. 66: 217-223, 1992. The amount of injected ZnODPc was estimated by diluting a known aliquot of the phthalocyanine-containing emulsion into THF and reading the absorbance at 701 nm (molar absorption coefficient 2.01×10^5 dm^3 mol^-1 cm^-1). The tumour-bearing mice were injected with 1.2 mg/kg ZnODPc in the tail vein. At 3 hours and 24 hours after administration, groups of three mice were sacrificed by prolonged exposure to ether vapours, the tumour and selected normal tissues (muscle, skin, liver and kidneys) were excised, washed with phosphate buffered saline (PBS) and assayed for the phthalocyanine content by spectrofluorimetric analysis after chemical extraction, see Reddi et al Br. J. Cancer 61: 407-411, 1990; typically a weighted amount of tissue was homogenized in 3 ml of 2% aqueous sodium dodecyl sulphate (SDS); the homegenate was incubated for 1 hour at room temperature under gentle magnetic stirring and 1 ml of the suspension was added with 2 ml of THF, centrifuged at 10 mins at 3000 rpm; the supernatant was collected and its fluorescence intensity was determined in the 670-770 nm interval (excitation at 650 nm). The fluorescence intensity was converted into ZnODPc concentration by interpolation with a calibration plot. Samples of blood were taken from the sacrificed animals, centrifuged to separate the erythocytes and the serum (50 μl) thus collected was diluted with 2% aqueous SDS (700 μl), added with 1.5 ml of THF and centrifuged for 10 mins at 3000 rpm. The ZnODPc concentration in the supernatant was determined by fluorescence spectroscopy as specified above. Special attention was focussed on the phthalocyanine content in the muscle which is the peritumoural tissue in the animal model exemplified in this study and the skin because of the frequent onset of persistent cutaneous photosensitivity in PDT patients. The determination of ZnODPc accumulation in liver and kidneys can provide useful information on the modality of its elimination from the organism. Analyses were carried out at 3 h intervals after photosensitizer injection and at 24 h which is generally considered to be the usual time interval for PDT treatment.

Data set [5] concerns MS-2 fibrosarcoma. The experiment in a line: Phototherapeutic studies: tumour response to PDT (visual observation, electron microscopy). The class given is in vivo, female Balb/c mice. The protocol:
as §1
The tumour bearing mice were injected with 2.4 mg/kg ZnODPc and after 24 h were irradiated by 600-700 nm light which was isolated from the emission of a quartz-halogen lamp (Teclas, Lugano Switzerland) by optical filtering. The light beam was focussed into a bundle of optical fibres, whose tip was positioned at a 1 cm distance from the tumour surface. The lamp was operated at 230 mW/cm^2 for a total delivered light dose of 400 J/cm^2.
The tumour response was analyzed by visual observation, as well as by electron microscopy studies on tumour specimens taken at 6 h and 24 h after the end of the PDT. The procedure for the preparation of the samples and ultra structural determinations was performed as described by Milanesi et al. Br. J. Cancer 61: 846-850, 1990.
At the same time endocytoplasmic vacuolisation 6 is frequently observed with some completely necrotic cells and loss of the organised tissue structure.

For data set [6] the following is noted: ethanolic solution; Valduga et al 1988; cited from earlier work.
The mark [7] stands for this setting: Table 3, aerated samples, same system as triplet studies (1% pyridine in toluene), means of no less than four runs, compounds 8 and 9 run once.
[8] abbreviates: irradiation conditions described, in words.

The text below walks through data of patent US6096734A, “Photosensitizers for sensitizing cells” (The Secretary of State for Defence in Her Britannic …, priority 1993, dated 2000).

Like-named read-outs stand apart in the source and are kept apart here.

For `CCCCCCCCCCc1ccc(CCCCCCCCCC)c2c1C1=NC2=Nc2c3c(CCCCCCCCCC)ccc(CCCCCCCCCC)c3c3[n]2[Zn][n]2c(c4c(CCCCCCCCCC)ccc(CCCCCCCCCC)c4c2=NC2=NC(=N3)c3c(CCCCCCCCCC)ccc(CCCCCCCCCC)c32)=N1` [Example 1, 1,4,8,11,15,18,22,25-octakis-decylphthalocyaninato-zinc], the molar absorption coefficient in data set [1] (THF, 701 nm) is 2.01×10^5 dm^3 mol^-1 cm^-1. Besides, in data set [1] (cyclohexane), the absorption maximum was determined as 703 nm. Moreover, the “molar absorption coefficient (ε) at the absorption maximum” value in data set [1] (cyclohexane, 703 nm) is “approximately 2.3×10^5 dm^3 mol^-1 cm^-1”. For the same compound, the fluorescence emission maximum in data set [1] (cyclohexane, excited at 703 nm) came to 712 nm. In data set [2] (setting [7]), the “Singlet Oxygen Quantum Yield” value turned out to be 0.73. Besides, the “Singlet Oxygen Quantum Yield” value in data set [2] (toluene/pyridine solution) is on record as 0.73±0.06. Moreover, in data set [3], the “Triplet Lifetime” value came out at 50 μs and the “Triplet Quantum Yield” value is listed as 0.67. Also, in data set [4], the accumulation in kidneys result is “negligible amounts”, the liver concentrations entry was “comparatively low”, the “presence in cutaneous districts (skin)” value is given as “essentially no phthalocyanine is present” and the “recovery from the peritumoural tissue” value is listed as “No detectable amount”. For the same compound, in data set [4] (iv, 1.2 mg/kg, 3 h), the “Recovery, Kidney” value is 0.066 ± 0.008 μg of dye/g of tissue; the “Recovery, Liver” value is 0.278 ± 0.053 μg of dye/g of tissue; the “Recovery, Serum” value stood at 0.436 ± 0.324; the “Recovery, Tumour” value is on record as 0.073 μg of dye/g of tissue. Also, in data set [4] (iv, 1.2 mg/kg, 24 h), the “Recovery, Kidney” value is reported as 0.O05 ± 0.002 μg of dye/g of tissue; the “Recovery, Liver” value is 0.673 ± 0.140 μg of dye/g of tissue; the “Recovery, Serum” value was found to be 0.042 ± 0.015; the “Recovery, Skin” value is reported as 0.008 ± 0.001 μg of dye/g of tissue. Moreover, in data set [4] (iv, 1.2 mg/kg, 24 h), the “Recovery, Tumour” value is given as 0.132 ± 0.022 μg of dye/g of tissue. The “tumour growth delay compared with untreated tumour-bearing mice” value in data set [5] (2.4 mg/kg, irradiated 24 h post-injection, 600-700 nm, 400 J/cm^2) is listed as “significant delay in tumour growth”. In data set [5] (6 h after irradiation, FIG. 1), the “damage of blood vessels (electron microscopy)” value is reported as “less heavily damaged” and the “damage of tumour cells (electron microscopy)” value is “extensive damage of tumour cells”. Besides, the “overall appearance of the tumour” value in data set [5] (24 h after irradiation) is recorded as “deeply haemorrhagic”. Besides, in data set [5] (24 h after irradiation, FIG. 2), the “tissular damage (electron microscopy)” value is “remarkably more extensive at 24 h after irradiation”. In data set [5] (in words), the “damage of cell nuclei” value is on record as “extensive damage of cell nuclei” and the “tumour damage upon photoexcitation with red light” value is listed as “sufficient for inducing an efficient tumour damage”. Moreover, in data set [5] (setting [8]), the “damage of blood capillaries” value was “appreciable damage of blood capillaries” and the “main target of photosensitization” value is “malignant cells appear to be the main target”.

Regarding `CCCCCCCCCCc1ccc(CCCCCCCCCC)c2c1C1=NC2=Nc2c3c(CCCCCCCCCC)ccc(CCCCCCCCCC)c3c3[n]2[Zn][n]2c(c4c(CCCCCCCCCO)ccc(CCCCCCCCCO)c4c2=NC2=NC(=N3)c3c(CCCCCCCCCC)ccc(CCCCCCCCCC)c32)=N1` [Example 9, 1,4-Bis (9-Hydroxynonyl)-8,11,15,18,22,25-Hexadecylphthalocyaninato-Zinc], in data set [2] (setting [7]), the “Singlet Oxygen Quantum Yield” value was 0.80. The “Triplet Quantum Yield” value in data set [3] is 0.70.

Consider `[Zn+2].c1ccc2c(c1)-c1nc-2nc2[n-]c(nc3nc([n-]c4nc(n1)-c1ccccc1-4)-c1ccccc1-3)c1ccccc21` [Example 10, unsubstituted zinc phthalocyanine, reference compound], for which the “Singlet Oxygen Quantum Yield” value in data set [2] (setting [7]) is recorded as 0.50; in data set [6], “approximately 0.4”. Besides, in data set [3], the “Triplet Quantum Yield” value is 0.45.
